Results taken from PubChem BioAssay AID1963828 (Molecular Pharmacology Branch, DTP, NCI, 2024).

Test system: 991263-137-R1-J2-PDC complex spheroid viability
Assay: Anticancer human tumor 991263-137-R1-J2-PDC patient-derived colon adenocarcinoma cell line growth inhibition [POLQ]
Conditions: for IC50: curve of first compound; for viability, T/C: stronger effect = lower value
Outline: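 Three-cell-type spheroids modelling solid tumor plus stroma served as the readout system; POL inhibitors were tested individually and in combination, concentration ranges set by clinical Cmax where known.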

[1] = second compound 0.0316 µM, first compound 0.0316 µM
[2] = second compound 0.0316 µM, first compound 0.1 µM
[3] = second compound 0.0316 µM, first compound 0.316 µM
[4] = second compound 0.0316 µM, first compound 1 µM
[5] = second compound 0.0316 µM, first compound 3.16 µM
[6] = second compound 0.0316 µM, first compound 10 µM
[7] = second compound 0.1 µM, first compound 0.0316 µM
[8] = second compound 0.1 µM, first compound 0.1 µM
[9] = second compound 0.1 µM, first compound 0.316 µM
[10] = second compound 0.1 µM, first compound 1 µM
[11] = second compound 0.1 µM, first compound 3.16 µM
[12] = second compound 0.1 µM, first compound 10 µM
[13] = second compound 0.316 µM, first compound 0.0316 µM
[14] = second compound 0.316 µM, first compound 0.1 µM
[15] = second compound 0.316 µM, first compound 0.316 µM
[16] = second compound 0.316 µM, first compound 1 µM
[17] = second compound 0.316 µM, first compound 3.16 µM
[18] = second compound 0.316 µM, first compound 10 µM
[19] = second compound 1 µM, first compound 0.0316 µM
[20] = second compound 1 µM, first compound 0.1 µM
[21] = second compound 1 µM, first compound 0.316 µM
[22] = second compound 1 µM, first compound 1 µM
[23] = second compound 1 µM, first compound 3.16 µM
[24] = second compound 1 µM, first compound 10 µM
[25] = second compound 3.16 µM, first compound 0.0316 µM
[26] = second compound 3.16 µM, first compound 0.1 µM
[27] = second compound 3.16 µM, first compound 0.316 µM
[28] = second compound 3.16 µM, first compound 1 µM
[29] = second compound 3.16 µM, first compound 3.16 µM
[30] = second compound 3.16 µM, first compound 10 µM
[31] = second compound 10 µM, first compound 0.0316 µM
[32] = second compound 10 µM, first compound 0.1 µM
[33] = second compound 10 µM, first compound 0.316 µM
[34] = second compound 10 µM, first compound 1 µM
[35] = second compound 10 µM, first compound 3.16 µM
[36] = second compound 10 µM, first compound 10 µM
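Also: spheroids exposed to compounds for 7 days before readout.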
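For viability, T/C in this document: 100% = DMSO vehicle control viability.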

SMILES: C=CC(=O)N1CCN(c2nc(=O)n(-c3c(C)ccnc3C(C)C)c3nc(-c4c(O)cccc4F)c(F)cc23)C(C)C1 (stereo not drawn) + Cc1cccc(N(C)C(=O)C2C(O)CCN2c2nc(C)cc(C(F)(F)F)c2C#N)c1
- IC50 (second compound 0.0316 µM): > 10 µM
- IC50 (second compound 0.1 µM): > 10 µM
- IC50 (second compound 0.316 µM): > 10 µM
- IC50 (second compound 1 µM): > 10 µM
- IC50 (second compound 3.16 µM): > 10 µM
- IC50 (second compound 10 µM): > 10 µM
- viability, T/C [1]: 104%
- viability, T/C [2]: 109%
- viability, T/C [3]: 93.5%
- viability, T/C [4]: 103%
- viability, T/C [5]: 114%
- viability, T/C [6]: 115%
- viability, T/C [7]: 114%
- viability, T/C [8]: 112%
- viability, T/C [9]: 102%
- viability, T/C [10]: 90.5%
- viability, T/C [11]: 116%
- viability, T/C [12]: 107%
- viability, T/C [13]: 97.6%
- viability, T/C [14]: 107%
- viability, T/C [15]: 102%
- viability, T/C [16]: 90.3%
- viability, T/C [17]: 120%
- viability, T/C [18]: 104%
- viability, T/C [19]: 88%
- viability, T/C [20]: 117%
- viability, T/C [21]: 107%
- viability, T/C [22]: 81.7%
- viability, T/C [23]: 115%
- viability, T/C [24]: 124%
- viability, T/C [25]: 98.7%
- viability, T/C [26]: 118%
- viability, T/C [27]: 95.7%
- viability, T/C [28]: 91.7%
- viability, T/C [29]: 123%
- viability, T/C [30]: 107%
- viability, T/C [31]: 101%
- viability, T/C [32]: 107%
- viability, T/C [33]: 108%
- viability, T/C [34]: 116%
- viability, T/C [35]: 116%
- viability, T/C [36]: 103%

SMILES: CC(C)n1c(=O)n(C)c2cnc3cc(F)c(-c4ccc(OCCCN5CCCCC5)nc4)cc3c21 + Cc1cccc(N(C)C(=O)C2C(O)CCN2c2nc(C)cc(C(F)(F)F)c2C#N)c1
- IC50 (second compound 0.0316 µM): > 10 µM
- IC50 (second compound 0.1 µM): > 10 µM
- IC50 (second compound 0.316 µM): > 10 µM
- IC50 (second compound 1 µM): > 10 µM
- IC50 (second compound 3.16 µM): > 10 µM
- IC50 (second compound 10 µM): > 10 µM
- viability, T/C [1]: 98.9%
- viability, T/C [2]: 97.1%
- viability, T/C [3]: 99.3%
- viability, T/C [4]: 90.9%
- viability, T/C [5]: 98.3%
- viability, T/C [6]: 83.9%
- viability, T/C [7]: 96.6%
- viability, T/C [8]: 99.9%
- viability, T/C [9]: 115%
- viability, T/C [10]: 90.7%
- viability, T/C [11]: 74%
- viability, T/C [12]: 79%
- viability, T/C [13]: 83.8%
- viability, T/C [14]: 101%
- viability, T/C [15]: 102%
- viability, T/C [16]: 106%
- viability, T/C [17]: 109%
- viability, T/C [18]: 80.4%
- viability, T/C [19]: 92.1%
- viability, T/C [20]: 99.5%
- viability, T/C [21]: 116%
- viability, T/C [22]: 90.8%
- viability, T/C [23]: 99.1%
- viability, T/C [24]: 81.2%
- viability, T/C [25]: 85.9%
- viability, T/C [26]: 98.3%
- viability, T/C [27]: 90.2%
- viability, T/C [28]: 101%
- viability, T/C [29]: 109%
- viability, T/C [30]: 61.3%
- viability, T/C [31]: 82%
- viability, T/C [32]: 104%
- viability, T/C [33]: 86.7%
- viability, T/C [34]: 80.1%
- viability, T/C [35]: 111%
- viability, T/C [36]: 67.2%

SMILES: CCc1cc2c(N3CCc4c(cc(Cn5ccnc5)cc4-c4cn(C)nc4C(F)(F)F)C3=O)ccnc2c(OC)n1 + Cc1cccc(N(C)C(=O)C2C(O)CCN2c2nc(C)cc(C(F)(F)F)c2C#N)c1
- IC50 (second compound 0.0316 µM): > 10 µM
- IC50 (second compound 0.1 µM): > 10 µM
- IC50 (second compound 0.316 µM): > 10 µM
- IC50 (second compound 1 µM): > 10 µM
- IC50 (second compound 3.16 µM): > 10 µM
- IC50 (second compound 10 µM): > 10 µM
- viability, T/C [1]: 95.3%
- viability, T/C [2]: 108%
- viability, T/C [3]: 107%
- viability, T/C [4]: 87.2%
- viability, T/C [5]: 82.8%
- viability, T/C [6]: 91.7%
- viability, T/C [7]: 103%
- viability, T/C [8]: 100%
- viability, T/C [9]: 97.7%
- viability, T/C [10]: 95.9%
- viability, T/C [11]: 96.7%
- viability, T/C [12]: 88.3%
- viability, T/C [13]: 104%
- viability, T/C [14]: 96.8%
- viability, T/C [15]: 93.4%
- viability, T/C [16]: 95.7%
- viability, T/C [17]: 100%
- viability, T/C [18]: 94.4%
- viability, T/C [19]: 105%
- viability, T/C [20]: 98.4%
- viability, T/C [21]: 110%
- viability, T/C [22]: 96%
- viability, T/C [23]: 103%
- viability, T/C [24]: 92%
- viability, T/C [25]: 106%
- viability, T/C [26]: 97.5%
- viability, T/C [27]: 90.4%
- viability, T/C [28]: 96.2%
- viability, T/C [29]: 90.3%
- viability, T/C [30]: 89%
- viability, T/C [31]: 96.6%
- viability, T/C [32]: 111%
- viability, T/C [33]: 97%
- viability, T/C [34]: 89.9%
- viability, T/C [35]: 91.4%
- viability, T/C [36]: 83%

SMILES: COc1cc2cc(C(=O)CCC(=O)O)sc2cc1OC + Cc1cccc(N(C)C(=O)C2C(O)CCN2c2nc(C)cc(C(F)(F)F)c2C#N)c1
- IC50 (second compound 0.0316 µM): > 10 µM
- IC50 (second compound 0.1 µM): > 10 µM
- IC50 (second compound 0.316 µM): > 10 µM
- IC50 (second compound 1 µM): > 10 µM
- IC50 (second compound 3.16 µM): > 10 µM
- IC50 (second compound 10 µM): > 10 µM
- viability, T/C [1]: 100%
- viability, T/C [2]: 103%
- viability, T/C [3]: 99.8%
- viability, T/C [4]: 95.8%
- viability, T/C [5]: 102%
- viability, T/C [6]: 81.8%
- viability, T/C [7]: 91.5%
- viability, T/C [8]: 88.8%
- viability, T/C [9]: 95.4%
- viability, T/C [10]: 93.6%
- viability, T/C [11]: 95.7%
- viability, T/C [12]: 77%
- viability, T/C [13]: 102%
- viability, T/C [14]: 92.8%
- viability, T/C [15]: 101%
- viability, T/C [16]: 102%
- viability, T/C [17]: 97.4%
- viability, T/C [18]: 71.2%
- viability, T/C [19]: 91.2%
- viability, T/C [20]: 103%
- viability, T/C [21]: 91.5%
- viability, T/C [22]: 88%
- viability, T/C [23]: 108%
- viability, T/C [24]: 74.2%
- viability, T/C [25]: 87.8%
- viability, T/C [26]: 94.1%
- viability, T/C [27]: 90.3%
- viability, T/C [28]: 110%
- viability, T/C [29]: 87.2%
- viability, T/C [30]: 80%
- viability, T/C [31]: 86%
- viability, T/C [32]: 97.5%
- viability, T/C [33]: 97.9%
- viability, T/C [34]: 101%
- viability, T/C [35]: 102%
- viability, T/C [36]: 81%
